Where a name gives a salt, the structure may show the parent alone. Read-outs that look alike come from different tables or passages of the source.
Test system: passive cutaneous anaphylaxis (PCA) reaction
Test: passive cutaneous anaphylaxis (PCA) test, i.v. or oral administration
Type: in vivo, male Charles River Wistar rats
Details: Rattus norvegicus, read-out: degree (%) of protection, PCA test
Description: In the PCA test, normal animals are injected intradermally (i.d.) with antibodies contained in serum obtained from actively sensitized animals. The animals are then challenged intravenously with antigen mixed with a dye such as Evans' Blue. The increased capillary-permeability caused by the antigen-antibody reaction causes the dye to leak from the site of the antibody injection. The test animals are then asphyxiated and the intensity of the reaction determined by measuring the diameter and intensity of the blue coloration on the inner surface of the animals skin. […] The ability of agents to interfere with PCA reactions is measured in male Charles River Wistar rats, 170-210 g. […] Hyperimmune antisera to hen egg albumin is prepared according to Orange, et al., J. Exptl. […] Forty-eight hours prior to antigen challenge the reaginic antisera is injected intradermally (i.d.) into the shaved skin of a normal rat's back; 5 hours before challenge the hyperimmune antisera is similarly injected; 5 hours later, at a third site, 60 mcg. histamine dihydrochloride is injected i.d. as a check for antihistaminic and unspecific types of blockage; the compounds of the instant invention or saline are then administered i.v. and immediately followed by 2.5 mg. Evan's blue dye and 5 mg. egg albumin in saline. In the case of oral administration Evan's blue dye and egg albumen are given five minutes after administration of the drug. Thirty minutes later the animals are asphyxiated using chloroform and the skin of the back removed and reversed for observation. A score is assigned each injection site equal to the product of the diameter of the site in mm. and a grade of 0.1, 0.5, 1, 2, 3 or 4 proportional to intensity of dye coloration. The scores for a given injection site are summed for each group of 8 animals and compared to the saline treated controls. The difference is expressed as percent blockade due to the compound employed. […] Disodium cromoglycate, a commerial antiallergy agent, is included for comparison. [drawing 3]

With `CCOC(=O)c1nc2nc3cc(O)c(OC)cc3cc2c(=O)[nH]1` [COOC2 H5/H/H/OCH3/OH/H, Ethyl 7-Methoxy-8-Hydroxypyrimido[4,5-b]Quinolin-4(3H)One-2-Carboxylate] as the molecule, how does the inhibition in vivo at 0.003 mg/kg (iv, I.V.) read?
The inhibition in vivo at 0.003 mg/kg was 0%.

And the inhibition in vivo at 0.3 mg/kg (iv, I.V.)?
The inhibition in vivo at 0.3 mg/kg was 100%.

What about the inhibition in vivo at 3 mg/kg (iv, I.V.) of the same molecule?
The inhibition in vivo at 3 mg/kg was 100%.

`COc1cc2cc3c(=O)[nH]c(C(C)=O)nc3nc2cc1OC` [COCH3/H/H/OCH3/OCH3/H, 2-Acetyl-7,8-Dimethoxypyrimido[4,5-b]quinoline-4(3H)-One] was tested. Which inhibition in vivo at 0.1 mg/kg (iv, I.V.) did it give?
The inhibition in vivo at 0.1 mg/kg was 19%.

And the inhibition in vivo at 1 mg/kg (iv, I.V.)?
The inhibition in vivo at 1 mg/kg was 21%.

And the inhibition in vivo at 3 mg/kg (iv, I.V.)?
Its inhibition in vivo at 3 mg/kg is 100%.

What about the inhibition in vivo at 10 mg/kg (Oral) of the same molecule?
Its inhibition in vivo at 10 mg/kg is 15%.

Which inhibition in vivo at 0.3 mg/kg (iv, I.V.) does the source give for `CCOC(=O)c1nc2nc3c(OC)c(OC)ccc3cc2c(=O)[nH]1` [COOC2 H5/H/H/H/OCH3/OCH3, Ethyl 8,9-Dimethoxypyrimido[4,5-b]-Quinolin-4(3H)-One-2-Carboxylate] here?
The inhibition in vivo at 0.3 mg/kg was 39%.

And the inhibition in vivo at 3 mg/kg (iv, I.V.)?
The inhibition in vivo at 3 mg/kg was 100%.

What about the inhibition in vivo at 10 mg/kg (Oral) of the same molecule?
The inhibition in vivo at 10 mg/kg was 0%.

What about the inhibition in vivo at 60 mg/kg (Oral) of the same molecule?
The inhibition in vivo at 60 mg/kg was 26%.

`COc1cc2cc3c(=O)[nH]c(C(=O)NO)nc3nc2cc1OC` [CONHOH/H/H/OCH3/OCH3/H, 7,8-Dimethoxypyrimido-[4,5-b]-Quinolin-4(3H)-One-2-Hydroxamic Acid] was tested. Which inhibition in vivo at 3 mg/kg (iv, I.V.) did it give?
Its inhibition in vivo at 3 mg/kg is 92%.

And the inhibition in vivo at 60 mg/kg (Oral)?
Its inhibition in vivo at 60 mg/kg is 3%.

With `CCCCOC(=O)c1nc2nc3cc(OC)c(O)cc3cc2c(=O)[nH]1` [COO-(n-C4 H9)/H/H/OH/OCH3/H, n-butyl 7-hydroxy-8-methoxypyrimido[4,5-b]quinolin-4(3H)one-2-carboxylate trifluoroacetate] as the molecule, how does the inhibition in vivo at 0.003 mg/kg (iv, I.V.) read?
The inhibition in vivo at 0.003 mg/kg was 52%.

And the inhibition in vivo at 3 mg/kg (iv, I.V.)?
The inhibition in vivo at 3 mg/kg was 100%.

What about the inhibition in vivo at 10 mg/kg (Oral) of the same molecule?
The inhibition in vivo at 10 mg/kg was 67%.

How did the inhibition in vivo at 0.003 mg/kg (iv, I.V.) turn out when `CCOC(=O)c1nc2nc3cc(OCC)c(OC)cc3cc2c(=O)[nH]1` [COOC2 H5/H/H/OCH3/OC2 H5/H, Ethyl 7-methoxy-8-ethoxypyrimido[4,5-b]quinoline-4(3H)-one-2-carboxylate] was run?
Its inhibition in vivo at 0.003 mg/kg is 66%.

What about the inhibition in vivo at 0.01 mg/kg (iv, I.V.) of the same molecule?
Its inhibition in vivo at 0.01 mg/kg is 57%.

And the inhibition in vivo at 0.03 mg/kg (iv, I.V.)?
Its inhibition in vivo at 0.03 mg/kg is 85%.

And the inhibition in vivo at 0.1 mg/kg (iv, I.V.)?
Its inhibition in vivo at 0.1 mg/kg is 94%.

And the inhibition in vivo at 3 mg/kg (iv, I.V.)?
Its inhibition in vivo at 3 mg/kg is 97%.

What about the inhibition in vivo at 0.3 mg/kg (Oral) of the same molecule?
The inhibition in vivo at 0.3 mg/kg was 31%.

And the inhibition in vivo at 1 mg/kg (Oral)?
Its inhibition in vivo at 1 mg/kg is 44%.

And the inhibition in vivo at 3 mg/kg (Oral)?
The inhibition in vivo at 3 mg/kg was 52%.

And the inhibition in vivo at 10 mg/kg (Oral)?
Its inhibition in vivo at 10 mg/kg is 73%.

What about the inhibition in vivo at 30 mg/kg (Oral) of the same molecule?
The inhibition in vivo at 30 mg/kg was 80%.

For `CCOC(=O)CNC(=O)c1nc2nc3cc(OC)c(OC)cc3cc2c(=O)[nH]1` [N-carbethoxymethyl 7,8-dimethoxypyrimido-[4,5-b]quinolin-4(3H)-one-2-carboxamide], which inhibition in vivo at 3 mg/kg (iv, I.V.) is on record?
The inhibition in vivo at 3 mg/kg was 32%.

And the inhibition in vivo at 30 mg/kg (iv, I.V.)?
The inhibition in vivo at 30 mg/kg was 96%.

Which inhibition in vivo at 3 mg/kg (iv, I.V.) does the source give for `CCCCOC(=O)c1nc2nc3cc(OC)c(OC(C)=O)cc3cc2c(=O)[nH]1` [COO-(n-C4 H9)/H/H/CH3 COO/OCH3/H] here?
The inhibition in vivo at 3 mg/kg was 100%.

What about the inhibition in vivo at 10 mg/kg (Oral) of the same molecule?
Its inhibition in vivo at 10 mg/kg is 36%.

How did the inhibition in vivo at 0.03 mg/kg (iv, I.V.) turn out when `CCCCOC(=O)c1nc2nc3cc(OC)c(OCc4ccccc4)cc3cc2c(=O)[nH]1` [COO-(n-C4 H9)/H/H/OC7 H7/OCH3/H] was run?
The inhibition in vivo at 0.03 mg/kg was 57%.

And the inhibition in vivo at 3 mg/kg (iv, I.V.)?
Its inhibition in vivo at 3 mg/kg is 100%.

What about the inhibition in vivo at 10 mg/kg (Oral) of the same molecule?
Its inhibition in vivo at 10 mg/kg is 12%.

What does the source list for `CCOC(=O)c1nc2nc3c(OC)cc(OC)cc3cc2c(=O)[nH]1` [COOC2 H5/H/H/OCH3/H/OCH3]?
inhibition in vivo at 0.03 mg/kg (iv, I.V.): 14%; inhibition in vivo at 0.3 mg/kg (iv, I.V.): 38%; inhibition in vivo at 3 mg/kg (iv, I.V.): 97%; inhibition in vivo at 30 mg/kg (Oral): 41%

Which inhibition in vivo at 3 mg/kg (iv, I.V.) does the source give for `CCOC(=O)Cc1nc2cc3ccccc3cc2c(=O)[nH]1` [2-carbethoxymethylbenzo[g]quinazolin-4(3H)-one, reference compound] here?
Its inhibition in vivo at 3 mg/kg is 49%.

With `CCCCOC(=O)c1nc2nc3cc(OC)c(OC)cc3cc2c(=O)[nH]1` [COO(n-C4 H9)/H/H/OCH3/OCH3/H] as the molecule, how does the inhibition in vivo at 0.003 mg/kg (iv, I.V.) read?
The inhibition in vivo at 0.003 mg/kg was 64%.

And the inhibition in vivo at 0.03 mg/kg (iv, I.V.)?
Its inhibition in vivo at 0.03 mg/kg is 100%.

What about the inhibition in vivo at 0.3 mg/kg (iv, I.V.) of the same molecule?
Its inhibition in vivo at 0.3 mg/kg is 94%.

And the inhibition in vivo at 3 mg/kg (iv, I.V.)?
Its inhibition in vivo at 3 mg/kg is 90%.

What about the inhibition in vivo at 30 mg/kg (Oral) of the same molecule?
Its inhibition in vivo at 30 mg/kg is 81%.

`CCOC(=O)c1nc2nc3cc(OC)c(OCC)cc3cc2c(=O)[nH]1` [COOC2 H5/H/H/OC2 H5/OCH3/H] was tested. Which inhibition in vivo at 0.003 mg/kg (iv, I.V.) did it give?
The inhibition in vivo at 0.003 mg/kg was 50%.

What about the inhibition in vivo at 0.01 mg/kg (iv, I.V.) of the same molecule?
The inhibition in vivo at 0.01 mg/kg was 72%.

What about the inhibition in vivo at 0.03 mg/kg (iv, I.V.) of the same molecule?
The inhibition in vivo at 0.03 mg/kg was 85%.

What about the inhibition in vivo at 0.1 mg/kg (iv, I.V.) of the same molecule?
The inhibition in vivo at 0.1 mg/kg was 99%.

And the inhibition in vivo at 3 mg/kg (iv, I.V.)?
Its inhibition in vivo at 3 mg/kg is 100%.

And the inhibition in vivo at 0.3 mg/kg (Oral)?
The inhibition in vivo at 0.3 mg/kg was 56%.

What about the inhibition in vivo at 1 mg/kg (Oral) of the same molecule?
Its inhibition in vivo at 1 mg/kg is 76%.

And the inhibition in vivo at 3 mg/kg (Oral)?
The inhibition in vivo at 3 mg/kg was 83%.

And the inhibition in vivo at 10 mg/kg (Oral)?
Its inhibition in vivo at 10 mg/kg is 92%.

Source: US4044134A, “Fused pyrimidin-4(3H)-ones as antiallergy agents” (Pfizer Inc., priority 1976, dated 1977)
